Measured values from PubChem BioAssay AID1259411 (Chemical Carcinogenesis Research Information System (CCRIS), 2018).
Activity calls are given as the source filed them. How the calls were made is not given here.

Tested on: rodent carcinogenicity bioassays, tumor incidence
Assay: CCRIS carcinogenicity studies
Summary of the method: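 Archive of carcinogenicity, mutagenicity, tumor promotion and tumor inhibition results drawn from journals, NCI reports and other sources, expert-reviewed; covers 1985-2011 and is no longer updated.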

O=C1CCO1
carcinogen call (Species: MOUSE, Route: DERMAL, Tumor Site: Type of Lesion: INTEGUMENTARY SYSTEM (SKIN)): active; positive | carcinogen call (Species: MOUSE, Route: INTRAPERITONEAL, Tumor Site: Type of Lesion: LIVER, LYMPHATIC SYSTEM: LYMPHOMA): active; positive | carcinogen call (Species: MOUSE, Route: SUBCUTANEOUS, Tumor Site: Type of Lesion: INJECTION SITE): active; positive | carcinogen call (Species: MOUSE, Strain/Sex: CF1/FEMALE, Route: DERMAL, Dose: 0, 2% IN ACETONE 2D/WK FOR 2 YR (STUDY DURATION: 2 YR), Tumor Site: Type of Lesion: SKIN: SQUAMOUS CELL CARCINOMA, SKIN: CARCINOSARCOMA): active; positive | carcinogen call (Species: MOUSE, Strain/Sex: CF1/MALE, Route: DERMAL, Dose: 0, 2% IN ACETONE 2D/WK FOR 104 WK (STUDY DURATION: 2 YR), Tumor Site: Type of Lesion: SKIN: SQUAMOUS CELL CARCINOMA, SKIN: DERMAL FIBROSARCOMA, SKIN: CARCINOSARCOMA, Tumor Site: Type of Lesion: SKIN: SQUAMOUS CELL CARCINOMA, SKIN: DERMAL FIBROSARCOMA, SKIN: CARCINOSARCOMA): active; positive | carcinogen call (Species: RAT, Route: SUBCUTANEOUS, Tumor Site: Type of Lesion: INJECTION SITE): active; positive | carcinogen call (Species: RAT, Strain/Sex: SPRAGUE-DAWLEY/MALE, Route: INHALATION, Dose: 0, 5, 10, 20 PPM 6 HR/D 5 D/WK FOR 30 D EXCEPT 20 PPM GROUP WHICH WAS EXPOSED FOR 5 D (STUDY DURATION: LIFETIME), Dose: 0, 5, 10, 20 PPM 6 HR/D 5 D/WK FOR 30 D EXCEPT 20 PPM GROUP WHICH WAS EXPOSED FOR 5 D (STUDY DURATION: LIFETIME), Tumor Site: Type of Lesion: NASAL CAVITY: TUMORS): active; positive

CCSCCC(N)C(=O)O (stereo not drawn)
carcinogen call (Species: RAT, Strain/Sex: F344/MALE, Route: ORAL, Dose: 0, 0.05% IN METHYL-DEFICIENT DIET FOR 8 MO, STUDY DURATION: 20 MO, Dose: 0, 0.05% IN METHYL-DEFICIENT DIET FOR 8 MO, STUDY DURATION: 20 MO, Tumor Site: Type of Lesion: LIVER: HEPATOCELLULAR CARCINOMA): active; positive | carcinogen call (Species: RAT, Strain/Sex: F344/MALE, Route: ORAL, Dose: 0.25% IN DIET FOR 24 WK, Tumor Site: Type of Lesion: LIVER): active; positive | carcinogen call (Species: RAT, Strain/Sex: OSBORNE-MENDEL/MALE,FEMALE, Route: ORAL, Dose: 0.25% IN BASAL DIET FOR 8-9 MO, Tumor Site: Type of Lesion: LIVER: CARCINOMA): active; positive | carcinogen call (Species: RAT, Strain/Sex: SPRAGUE-DAWLEY, Route: ORAL, Dose: 0.25% IN DIET FOR 8 MO, Tumor Site: Type of Lesion: LIVER: CARCINOMA): active; positive | carcinogen call (Species: RAT, Strain/Sex: WISTAR/MALE,FEMALE, Route: ORAL, Dose: 0.25% IN BASAL DIET FOR 8 MO THEN STOCK DIET FOR 2 MO, Tumor Site: Type of Lesion: LIVER: CARCINOMA): active; positive

O=CN(O)c1ccc(/C=C/c2ccccc2)cc1
carcinogen call (Species: RAT, Strain/Sex: STRAIN-CD/FEMALE, Route: INTRAPERITONEAL, Dose: 0, 10 UMOL/KG BW 2/WK FOR 6 WK (STUDY DURATION: 62 WK), Tumor Site: Type of Lesion: LIVER: NEOPLASTIC NODULE, MAMMARY GLAND: TUMOR): active; positive | carcinogen call (Species: RAT, Strain/Sex: STRAIN-CD/MALE, Route: INTRAPERITONEAL, Dose: 0, 10 UMOL/KG BW 2/WK FOR 6 WK (STUDY DURATION: 62 WK), Tumor Site: Type of Lesion: TESTICLE: MESOTHELIOMA, PANCREAS(ACINUS): ADENOMA): active; positive

[O-]/[N+](=N\O)c1ccccc1
carcinogen call (Species: MOUSE, Strain/Sex: B6C3F1/FEMALE, Route: ORAL, Dose: 0, 0.2, 0.4% TWA, IN DIET FOR 78 WK (STUDY DURATION: 95-98 WK), Dose: 0, 0.2, 0.4% TWA, IN DIET FOR 78 WK (STUDY DURATION: 95-98 WK), Tumor Site: Type of Lesion: CIRCULATORY SYSTEM: HEMANGIOSARCOMA OR HEMANGIOMA, LIVER: HEPATOCELLULAR CARCINOMA, HEPATOCELLULAR ADENOMA OR CARCINOMA;, Tumor Site: Type of Lesion: CIRCULATORY SYSTEM: HEMANGIOSARCOMA OR HEMANGIOMA, LIVER: HEPATOCELLULAR CARCINOMA, HEPATOCELLULAR ADENOMA OR CARCINOMA): active; positive | carcinogen call (Species: MOUSE, Strain/Sex: B6C3F1/MALE, Route: ORAL, Dose: 0, 0.2, 0.4% TWA, IN DIET FOR 78 WK (STUDY DURATION: 95-98 WK), Dose: 0, 0.2, 0.4% TWA, IN DIET FOR 78 WK (STUDY DURATION: 95-98 WK), Tumor Site: Type of Lesion: CIRCULATORY SYSTEM: HEMANGIOSARCOMA): active; positive | carcinogen call (Species: RAT, Strain/Sex: F344/FEMALE, Route: ORAL, Dose: 0, 0.15, 0.30% IN DIET FOR 78 WK (STUDY DURATION: 106-110 WK), Dose: 0, 0.15, 0.30% IN DIET FOR 78 WK (STUDY DURATION: 106-110 WK), Tumor Site: Type of Lesion: CIRCULATORY SYSTEM: HEMANGIOSARCOMA, LIVER: HEPATOCELLULAR CARCINOMA, HEPATOCELLULAR CARCINOMA OR NEOPLASTIC NODULE, STO, Tumor Site: Type of Lesion: CIRCULATORY SYSTEM: HEMANGIOSARCOMA, LIVER: HEPATOCELLULAR CARCINOMA, HEPATOCELLULAR CARCINOMA OR NEOPLASTIC NODULE, STO): active; positive | carcinogen call (Species: RAT, Strain/Sex: F344/MALE, Route: ORAL, Dose: 0, 0.15, 0.30% IN DIET FOR 78 WK (STUDY DURATION: 97-110 WK), Dose: 0, 0.15, 0.30% IN DIET FOR 78 WK (STUDY DURATION: 97-110 WK), Tumor Site: Type of Lesion: CIRCULATORY SYSTEM: HEMANGIOSARCOMA, LIVER: HEPATOCELLULAR CARCINOMA OR NEOPLASTIC NODULE, STOMACH: SQUAMOUS CELL CARCIN, Tumor Site: Type of Lesion: CIRCULATORY SYSTEM: HEMANGIOSARCOMA, LIVER: HEPATOCELLULAR CARCINOMA OR NEOPLASTIC NODULE, STOMACH: SQUAMOUS CELL CARCIN): active; positive

CCC(=O)Oc1ccc2c(c1)CC[C@@H]1[C@@H]2CC[C@]2(C)[C@@H](OC(=O)CC)CC[C@@H]12
carcinogen call (Species: MOUSE, Route: SUBCUTANEOUS, Tumor Site: Type of Lesion: MAMMARY GLAND): active; positive

CC1=C(C(=O)Nc2ccccc2)SCCO1
carcinogen call (Species: Mouse, Strain/Sex: Charles River/Female (50 per group in experimental animals; 75 controls), Route: Oral, Dose: 0, 50, 2,500, 5,000 ppm in diet for 19 mo, Dose: 0, 50, 2,500, 5,000 ppm in diet for 19 mo): inactive; negative (purity >99%; study details not given in source) | carcinogen call (Species: Mouse, Strain/Sex: Charles River/Male (50 per group in experimental animals; 75 controls), Route: Oral, Dose: 0, 50, 2,500, 5,000 ppm in diet for 19 mo, Dose: 0, 50, 2,500, 5,000 ppm in diet for 19 mo, Tumor Site: Type of Lesion: LUNG, Pulmonary adenomas and alveolar-bronchiolar adenomas (34% in high dose group vs 17% in controls; significant), Tumor Site: Type of Lesion: LUNG, Pulmonary adenomas and alveolar-bronchiolar adenomas (34% in high dose group vs 17% in controls; significant)): active; positive (purity >99%; study details not given in source) | carcinogen call (Species: Rat, Strain/Sex: Crl:CD SD/Female (50 per group), Route: Oral, Dose: 0, 20, 300, 600 ppm in diet for 102 wk, Dose: 0, 20, 300, 600 ppm in diet for 102 wk): inactive; negative (purity 97.7%; study details not given in source) | carcinogen call (Species: Rat, Strain/Sex: Crl:CD SD/Male (50 per group), Route: Oral, Dose: 0, 20, 200, 400 ppm in diet for 102 wk, Dose: 0, 20, 200, 400 ppm in diet for 102 wk): inactive; negative (purity 97.7%; study details not given in source)

C=CCOC(=O)CC(C)C
carcinogen call (Species: MOUSE, Strain/Sex: B6C3F1/FEMALE, Route: GAVAGE, Dose: 0, 31, 62 MG/KG IN CORN OIL FOR 103 WK, Dose: 0, 31, 62 MG/KG IN CORN OIL FOR 103 WK, Tumor Site: Type of Lesion: LYMPHATIC SYSTEM: MALIGNANT LYMPHOMA): active; positive | carcinogen call (Species: RAT, Strain/Sex: F344/MALE, Route: GAVAGE, Dose: 0, 31, 62 MG/KG IN CORN OIL FOR 103 WK, Dose: 0, 31, 62 MG/KG IN CORN OIL FOR 103 WK, Tumor Site: Type of Lesion: HEMATOPOIETIC SYSTEM (LEUKEMIA): MONONUCLEAR CELL LEUKEMIA): active; positive

CC(C)CCC[C@@H](C)[C@H]1CC[C@H]2[C@@H]3C[C@@H]4O[C@@]45C[C@@H](O)CC[C@]5(C)[C@H]3CC[C@]12C
carcinogen call (Species: RAT, Strain/Sex: STRAIN-CD/FEMALE, Route: INJECTION, Dose: 0, 12.3 UMOL (TOTAL DOSE) 1/6 INJECTED UNDER EACH OF 3 THORACIC AND 3 INGUINAL NIPPLES ONCE (STUDY DURATION: 44 WK)): inactive; negative

CCC1C(c2ccc(O)cc2)=C(C)c2cc(O)ccc21 (stereo not drawn)
carcinogen call (Species: HAMSTER, Strain/Sex: SYRIAN/MALE, Route: SUBCUTANEOUS IMPLANT, Dose: 0, 20 MG IN PELLETS IMPLANTED EVERY 2.5 MO FOR 9 MO (STUDY DURATION: 9 MO), Tumor Site: Type of Lesion: KIDNEY: TUMOR): active; positive

C/C=C1/C[C@@H](C)[C@@](C)(O)C(=O)OC/C2=C/CN(C)CC[C@@H](OC1=O)C2=O
carcinogen call (Species: RAT, Strain/Sex: ACI/MALE, Route: INTRAPERITONEAL, Dose: 22 MG/KG IN SALINE 2/WK FOR 4 WK, THEN 1/WK FOR 52 WK, Tumor Site: Type of Lesion: LIVER: ADENOMA): active; positive
